Measured values reported in US8754038B2, “Template-fixed peptidomimetics with CCR10 antagonistic activity” (priority 2009, dated 2014).
Values belong to the compound of their own block, whether it stands above or below them. Numbered stars: 1 amine (or outer) side, 2 acyl side, 3 side chain; on linkers, the order of the positions; unused ones are H or OH. Square brackets hold non-standard residues; d marks the D form. Side chains are listed from the residue outwards. Peptide text beside a SMILES is read from it. * marks the point of attachment. Pro(4R-OPh) = O=C(O)[C@@H]1C[C@@H](Oc2ccccc2)CN1; Phe(4-CN) = N#Cc1ccc(C[C@H](N)C(=O)O)cc1; Hyp = O=C(O)[C@@H]1C[C@@H](O)CN1; Benzyl(4-Br) = Brc1ccc(C*)cc1; Ac5c = NC1(C(=O)O)CCCC1; Dab = NCC[C@H](N)C(=O)O; X10 = N#Cc1ccc(C*)cc1; X14 = N#Cc1cccc(C*)c1; CO = O=C([*:1])[*:2]; NHPh = c1ccc(N*)cc1

Legend:
human CCR10 [1] = target: T1, human CCR10 (Homo sapiens, UniProt P46092); assay: Calcium flux assay (CCR10 antagonism, CCL27 as agonist); format: cell-based; details: CCR10 transfected 300-19 murine pre-B cells; CCL27 30 nM
T1 construct: expressed in transfected cells
T1 sequence (P46092 1-362): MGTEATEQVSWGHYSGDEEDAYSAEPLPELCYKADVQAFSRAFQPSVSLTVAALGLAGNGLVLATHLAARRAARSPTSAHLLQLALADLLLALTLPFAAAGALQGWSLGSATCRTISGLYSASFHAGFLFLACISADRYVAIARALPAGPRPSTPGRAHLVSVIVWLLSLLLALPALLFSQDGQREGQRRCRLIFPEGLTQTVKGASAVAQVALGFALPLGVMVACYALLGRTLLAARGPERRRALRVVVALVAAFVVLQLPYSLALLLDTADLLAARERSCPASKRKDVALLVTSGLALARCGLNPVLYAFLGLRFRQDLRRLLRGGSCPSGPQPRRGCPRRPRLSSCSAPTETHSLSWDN
Method in brief: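 Murine 300-19 pre-B cells stably expressing human CCR10, Calcium4-loaded, given peptides in HBSS/0.1% BSA/0.1% DMSO, then 30 nM CCL27 (Flexstation) or CCL27 after 5 min peptide preincubation (FlipR); flux read 70 s or 200 s, at room temperature. IC50 from percent inhibition against no-inhibitor maximum.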

human CCR10 [2] = target: T1, human CCR10; assay: Chemotaxis assay (CCR10-transfected 300-19 cells, CCL27 gradient); format: cell-based; details: CCR10-transfected 300-19 murine pre-B cells; 30 nM CCL27 gradient
Procedure: Lyophilized peptides were weighed on a Microbalance (Mettler MX5) and dissolved in aqueous 90% DMSO to a final concentration of 10 mM unless otherwise stated. Stock solutions were kept at +4° C., and protected from light.
Peptides were assayed for CCR10 antagonism in a calcium flux assay and in a chemotaxis assay using a mouse pre-B cell line 300-19 stably transfected with human CCR10, and with human CCL27 as agonist.
The chemotactic response of CCR10-transfected 300-19 murine pre-B cells to a gradient of CCL27 (CTACK) was measured using disposable Transwell® assay plates from Costar (5 μm pore size) according to the protocol of the manufacturer. Briefly, cells were grown under sterile conditions at 37° C. with 5% CO2 in flasks containing RPMI+5% FCS, glutamine, penicillin/streptomycin (all media components were from Life Technologies) and the appropriate selection antibiotics (Puromycin, G418 or Tetracycline). For the assay, cells were pelleted by centrifugation, washed once in Dulbecco's phosphate buffered saline (DPBS), and resuspended to give 1×10^6 cells/ml in RPMI+0.5% bovine serum albumin (BSA). 100 μl of cell suspension was applied to the top of the assay filter. The β-hairpin peptidomimetics, diluted in the same assay medium, were added to both top and bottom chambers. The cells were allowed to migrate for 4-6 hours at 37° C. into the bottom chamber of the assay plate containing 30 nM of CCL27 (RnD systems). Migrated cells were counted using a FACS cytometer (Cytomics FC500, Beckman Coulter). Data normalization was performed using the number of any cells that had migrated in the absence of the β-hairpin peptidomimetic and the number of cells that have randomly migrated in absence of CCL27 [these values were taken as 100% (no inhibitory activity) and 0%, respectively]. From a range of compound concentrations IC50 were determined using Prism5 (GraphPad software).

Compound: N#Cc1ccc(CO[C@@H]2C[C@H]3C(=O)N[C@@H](Cc4c[nH]c5ccccc45)C(=O)NC4(CCCC4)C(=O)N[C@@H](Cc4c[nH]c5ccccc45)C(=O)N[C@@H](CCN)C(=O)N4CCC[C@@H]4C(=O)N3C2)cc1 [compound 53, cyclo(-Trp-Cyp-Trp-Dab-^DPro-Hyp(4CNBn)-)] (cyclo([Ac5c]W[Dab][dP][Hyp](X10)W))
IC50 (human CCR10 [1]): 48.9 ± 40 nM
IC50 (human CCR10 [2]): 143 nM

Compound: N#Cc1ccc(C[C@@H]2NC(=O)[C@@H]3C[C@@H](OCc4ccc(Br)cc4)CN3C(=O)[C@H]3CCCN3C(=O)[C@H](CO)NC(=O)[C@H](Cc3c[nH]c4ccccc34)NC(=O)C3(CCCC3)NC2=O)cc1 [compound 55, cyclo(-Phe(4CN)-Cyp-Trp-Ser-^DPro-Hyp(4BrBn)-)] (cyclo([Ac5c]WS[dP][Hyp](Benzyl(4-Br))[Phe(4-CN)]))
IC50 (human CCR10 [1]): 5.3 ± 3.9 nM
IC50 (human CCR10 [2]): 0.6 nM

Compound: NCC[C@@H]1NC(=O)[C@H](Cc2c[nH]c3ccccc23)NC(=O)C2(CCCC2)NC(=O)[C@H](Cc2c[nH]c3ccccc23)NC(=O)[C@@H]2C[C@@H](OC(=O)Nc3ccccc3)CN2C(=O)[C@H]2CCCN2C1=O [compound 57, cyclo(-Trp-Cyp-Trp-Dab-^DPro-Hyp(CONHPh)-)] (cyclo([Ac5c]W[Dab][dP][Hyp]([CO-NHPh])W))
IC50 (human CCR10 [1]): 150 ± 110 nM
IC50 (human CCR10 [2]): 183 nM

Further lines, results first:

IC50 (human CCR10 [1]): 42 ± 25.1 nM
IC50 (human CCR10 [2]): 37 nM
Compound: NCC[C@@H]1NC(=O)[C@H](Cc2c[nH]c3ccccc23)NC(=O)C2(CCCC2)NC(=O)[C@H](Cc2c[nH]c3ccccc23)NC(=O)[C@@H]2C[C@@H](Oc3ccccc3)CN2C(=O)[C@H]2CCCN2C1=O [compound 52, cyclo(-Trp-Cyp-Trp-Dab-^DPro-Hyp(Ph)-)] (cyclo([Ac5c]W[Dab][dP][Pro(4R-OPh)]W))

IC50 (human CCR10 [1]): 11.6 ± 9.2 nM
IC50 (human CCR10 [2]): 2.5 nM
Compound: NCC[C@@H]1NC(=O)[C@H](Cc2c[nH]c3ccccc23)NC(=O)C2(CCCC2)NC(=O)[C@H](Cc2c[nH]c3ccccc23)NC(=O)[C@@H]2C[C@@H](OCc3ccc(Br)cc3)CN2C(=O)[C@H]2CCCN2C1=O [compound 56, cyclo(-Trp-Cyp-Trp-Dab-^DPro-Hyp(4BrBn)-)] (cyclo([Ac5c]W[Dab][dP][Hyp](Benzyl(4-Br))W))

IC50 (human CCR10 [1]): 127 ± 73 nM
IC50 (human CCR10 [2]): 50.7 nM
Compound: N#Cc1cccc(CO[C@@H]2C[C@H]3C(=O)N[C@@H](Cc4c[nH]c5ccccc45)C(=O)NC4(CCCC4)C(=O)N[C@@H](Cc4c[nH]c5ccccc45)C(=O)N[C@@H](CCN)C(=O)N4CCC[C@@H]4C(=O)N3C2)c1 [compound 77, cyclo(-Trp-Cyp-Trp-Dab-^DPro-Hyp(3CNBn)-)] (cyclo([Ac5c]W[Dab][dP][Hyp](X14)W))
